According to PubChem BioAssay (NCI):
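Values below derive from 48-hour exposures of cells grown in 96-well plates, with endpoints linearly interpolated between the two concentrations bracketing the appropriate inhibition level. Abbreviation: GI50, concentration required for 50% inhibition of growth. Definition used: TGI = concentration required for complete inhibition of growth.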

What was measured:
Assay in all cases: DTP human tumour cell line panel, 48 h
[1] = test system: UACC-62 melanoma
[2] = test system: MDA-MB-435
[3] = test system: BT-549 breast
[4] = test system: TK-10 renal
[5] = test system: SF-268 CNS
[6] = test system: NCI-H460 lung
[7] = test system: LOX IMVI melanoma
[8] = test system: U251 CNS
[9] = test system: MCF7 breast
[10] = test system: COLO 205 colon

| SMILES | GI50 [1] | TGI [1] | GI50 [2] | TGI [2] | GI50 [3] | TGI [3] | GI50 [4] | TGI [4] | GI50 [5] | TGI [5] | TGI [6] | GI50 [7] | TGI [7] | GI50 [8] | TGI [8] | GI50 [9] | TGI [9] | GI50 [10] | TGI [10] | GI50 [6] |
| --- | --- | --- | --- | --- | --- | --- | --- | --- | --- | --- | --- | --- | --- | --- | --- | --- | --- | --- | --- | --- |
| COc1cc2c(/C=C3\C(=O)N(C)c4ccccc43)c[nH]c2cc1C | 1.29 µM | > 100 µM | 1.62 µM | 12.1 µM | 7.53 µM | 71.9 µM | 10.5 µM | 70.5 µM | 0.103 µM | > 43.9 µM | > 37.1 µM | 0.869 µM | > 47.9 µM | 0.499 µM | 29.6 µM | 0.12 µM | > 100 µM | 1.58 µM | > 100 µM |  |
| COc1cc(OC)c(C(=O)/C=C/c2ccc(C#N)cc2)c(OC)c1 | 1.45 µM | 5.78 µM | 1.32 µM | 6.69 µM | 1.3 µM | 5.11 µM | 1.71 µM | 24 µM | 1.97 µM | 46.5 µM | 3.94 µM | 1.37 µM | 5.47 µM | 1.81 µM | 7.05 µM | 1.49 µM | > 50 µM | 1.82 µM | 7.38 µM | 1.35 µM |
| COc1cccc(/C=C2\CCC(CN(C)C)C2=O)c1 (centres undefined) |  | 20.9 µM |  | 7.02 µM |  | 15.2 µM |  | 24.3 µM |  | 33.5 µM | 35 µM |  | 3.51 µM |  | 26.5 µM |  | 13.2 µM |  | 24.5 µM |  |
| CCOC(=O)Cc1csc(NC(=O)C(OC(=O)c2ccc(Cl)cc2)c2ccccc2)n1 (centres undefined) | 20.3 µM | 46.5 µM | 28.1 µM | 75.6 µM | 25.9 µM | 56.9 µM | > 100 µM | > 100 µM | 28.7 µM | > 100 µM | > 100 µM | 33.6 µM | > 100 µM | 45.3 µM | > 100 µM | 34 µM | > 100 µM | 38.3 µM | > 100 µM | 36.1 µM |
